In publication PMC11190964 (Journal of medicinal chemistry, 2023):
One block for each compound: values may come before it.

Key:
[1] = test system: MDA-MB-231 cells; assay: Vacuole formation; type: cell-based
[2] = target: T1, JNK2 (Homo sapiens, UniProt P45984); assay: Mass labeling of recombinant JNK2 protein; type: binding; conditions: room temperature, 60 min incubation; trypsin digest, CE-MS/MS
Target sequence in this assay (P45984 4-364): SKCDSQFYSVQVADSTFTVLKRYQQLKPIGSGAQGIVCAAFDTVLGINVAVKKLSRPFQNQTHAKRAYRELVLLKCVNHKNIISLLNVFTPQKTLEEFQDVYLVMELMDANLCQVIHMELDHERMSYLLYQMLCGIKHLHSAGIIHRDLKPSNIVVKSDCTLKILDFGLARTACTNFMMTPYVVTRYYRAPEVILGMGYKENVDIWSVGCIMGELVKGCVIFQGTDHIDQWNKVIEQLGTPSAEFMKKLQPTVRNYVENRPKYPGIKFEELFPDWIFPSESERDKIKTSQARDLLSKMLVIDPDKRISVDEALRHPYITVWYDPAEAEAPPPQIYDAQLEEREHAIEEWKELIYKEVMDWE

[3] = target: PIKFYVE (Homo sapiens, UniProt Q9Y2I7); assay: PIKFYVE NanoBRET target engagement assay; type: cell-based; conditions: transfected HEK293T cells, 3 h
[4] = test system: MM.1S cells; assay: Proliferation / growth rate inhibition assay; type: cell-based; conditions: for antiproliferative activity / toxicity, single agent: comparator inhibitors, single-agent treatment
[5] = target: JNK1 (Homo sapiens, UniProt P45983); assay: JNK1 NanoBRET target engagement assay; type: cell-based; conditions: HEK293T cells; compared with JNK-IN-8
[6] = test system: MM.1S cells; assay: Apoptosis; type: cell-based; conditions: PARP cleavage, caspase 3 cleavage, Annexin V/PI staining
[7] = test system: HAP1 parental cells and JNK2-knockout cell lines; assay: Antiproliferative activity in HAP1 parental and JNK2-knockout cells; type: cell-based
[8] = test system: Bortezomib-resistant ANBL6 cells; assay: Antiproliferative assay, Bortezomib-resistant ANBL6; type: cell-based; conditions: parental ANBL6 and Bortezomib-resistant ANBL6 cells
[9] = target: T1, JNK2; assay: Pull-down competition assay with biotin-JNK-IN-7, JNK2; type: cell-based; conditions: MM.1S cells, 6 h; both JNK1 and JNK2
Target sequence in this assay (P45984 whole entry): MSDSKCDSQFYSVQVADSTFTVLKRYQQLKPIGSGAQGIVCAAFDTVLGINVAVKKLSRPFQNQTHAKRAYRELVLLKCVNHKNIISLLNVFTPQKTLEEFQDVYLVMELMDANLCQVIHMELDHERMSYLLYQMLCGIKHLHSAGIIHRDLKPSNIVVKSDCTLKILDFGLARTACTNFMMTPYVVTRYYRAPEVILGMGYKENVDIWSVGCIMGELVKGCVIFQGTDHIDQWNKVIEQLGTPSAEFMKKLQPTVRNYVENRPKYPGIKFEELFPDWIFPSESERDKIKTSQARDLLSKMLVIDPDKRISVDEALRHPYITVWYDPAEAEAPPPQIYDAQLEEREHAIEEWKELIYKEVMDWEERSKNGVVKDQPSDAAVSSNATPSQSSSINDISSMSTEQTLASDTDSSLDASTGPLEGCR

[10] = target: T1, JNK2; assay: PhosphoSens kinetic assay; type: biochemical; conditions: JNK1 and JNK2
Target sequence in this assay (P45984 whole entry): as above

[11] = target: T1, JNK2; assay: Z′-Lyte fixed time point kinase assay, JNK2; conditions: fixed time point biochemical kinase assay
Target sequence in this assay (P45984 whole entry): as above

[12] = test system: panel of more than 400 kinases; assay: Kinome-wide selectivity panel; conditions: strong binding to EGFR, CK1, DDR1, CDK7, Aurora A and B

PIKFYVE, sequence (Q9Y2I7 whole entry): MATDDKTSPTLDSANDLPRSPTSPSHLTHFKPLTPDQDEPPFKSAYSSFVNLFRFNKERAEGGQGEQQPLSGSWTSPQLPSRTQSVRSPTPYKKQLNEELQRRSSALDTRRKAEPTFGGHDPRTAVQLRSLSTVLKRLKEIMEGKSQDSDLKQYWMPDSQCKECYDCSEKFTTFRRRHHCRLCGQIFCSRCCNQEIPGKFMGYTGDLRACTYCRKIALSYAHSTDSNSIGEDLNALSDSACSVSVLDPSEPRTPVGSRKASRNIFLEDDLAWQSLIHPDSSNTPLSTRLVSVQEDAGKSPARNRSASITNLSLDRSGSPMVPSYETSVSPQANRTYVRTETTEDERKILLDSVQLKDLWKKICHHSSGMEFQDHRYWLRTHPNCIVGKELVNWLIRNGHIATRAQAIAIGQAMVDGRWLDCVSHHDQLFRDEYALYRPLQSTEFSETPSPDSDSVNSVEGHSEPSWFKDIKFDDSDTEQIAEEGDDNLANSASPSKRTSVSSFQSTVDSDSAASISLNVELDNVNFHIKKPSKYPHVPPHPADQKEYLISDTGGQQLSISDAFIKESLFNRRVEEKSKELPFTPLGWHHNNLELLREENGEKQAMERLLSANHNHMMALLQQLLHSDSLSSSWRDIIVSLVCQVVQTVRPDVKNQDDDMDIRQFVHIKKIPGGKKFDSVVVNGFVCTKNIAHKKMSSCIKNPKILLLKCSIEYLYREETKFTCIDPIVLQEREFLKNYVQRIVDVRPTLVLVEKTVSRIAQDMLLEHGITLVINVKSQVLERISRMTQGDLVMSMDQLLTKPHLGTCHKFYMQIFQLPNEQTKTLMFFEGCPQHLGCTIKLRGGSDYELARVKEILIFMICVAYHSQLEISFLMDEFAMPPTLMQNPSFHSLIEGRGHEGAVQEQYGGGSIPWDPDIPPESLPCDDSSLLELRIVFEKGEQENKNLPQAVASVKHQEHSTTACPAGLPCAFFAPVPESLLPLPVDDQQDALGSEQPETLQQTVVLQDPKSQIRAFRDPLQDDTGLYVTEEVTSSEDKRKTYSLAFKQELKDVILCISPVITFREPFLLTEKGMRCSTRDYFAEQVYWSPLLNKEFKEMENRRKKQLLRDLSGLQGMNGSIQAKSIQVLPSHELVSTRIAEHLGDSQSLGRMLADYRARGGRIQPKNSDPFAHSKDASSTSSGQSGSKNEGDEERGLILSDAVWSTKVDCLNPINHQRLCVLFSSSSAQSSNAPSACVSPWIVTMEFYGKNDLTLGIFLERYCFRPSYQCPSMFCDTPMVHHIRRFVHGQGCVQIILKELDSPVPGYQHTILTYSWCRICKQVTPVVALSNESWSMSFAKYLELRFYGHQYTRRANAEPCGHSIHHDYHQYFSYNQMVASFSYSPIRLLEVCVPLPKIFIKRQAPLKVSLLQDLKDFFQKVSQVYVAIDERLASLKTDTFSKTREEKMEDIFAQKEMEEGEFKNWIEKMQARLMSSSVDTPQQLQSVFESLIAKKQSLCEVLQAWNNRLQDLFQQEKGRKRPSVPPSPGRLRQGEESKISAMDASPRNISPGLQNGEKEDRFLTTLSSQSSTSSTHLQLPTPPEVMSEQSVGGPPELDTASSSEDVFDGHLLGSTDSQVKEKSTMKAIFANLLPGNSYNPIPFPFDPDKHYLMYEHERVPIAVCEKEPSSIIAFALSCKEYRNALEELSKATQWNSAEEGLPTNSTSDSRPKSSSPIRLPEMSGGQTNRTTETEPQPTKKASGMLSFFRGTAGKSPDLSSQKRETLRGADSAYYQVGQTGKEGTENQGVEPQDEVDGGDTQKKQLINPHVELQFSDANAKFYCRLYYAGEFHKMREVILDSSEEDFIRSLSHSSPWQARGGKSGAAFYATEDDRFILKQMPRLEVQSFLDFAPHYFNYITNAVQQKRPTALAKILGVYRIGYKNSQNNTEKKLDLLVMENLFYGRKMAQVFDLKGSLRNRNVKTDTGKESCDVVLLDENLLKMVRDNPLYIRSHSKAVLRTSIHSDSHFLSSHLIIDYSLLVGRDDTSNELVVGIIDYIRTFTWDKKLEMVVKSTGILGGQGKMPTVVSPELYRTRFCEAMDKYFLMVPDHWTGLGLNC
JNK1, sequence (P45983 whole entry): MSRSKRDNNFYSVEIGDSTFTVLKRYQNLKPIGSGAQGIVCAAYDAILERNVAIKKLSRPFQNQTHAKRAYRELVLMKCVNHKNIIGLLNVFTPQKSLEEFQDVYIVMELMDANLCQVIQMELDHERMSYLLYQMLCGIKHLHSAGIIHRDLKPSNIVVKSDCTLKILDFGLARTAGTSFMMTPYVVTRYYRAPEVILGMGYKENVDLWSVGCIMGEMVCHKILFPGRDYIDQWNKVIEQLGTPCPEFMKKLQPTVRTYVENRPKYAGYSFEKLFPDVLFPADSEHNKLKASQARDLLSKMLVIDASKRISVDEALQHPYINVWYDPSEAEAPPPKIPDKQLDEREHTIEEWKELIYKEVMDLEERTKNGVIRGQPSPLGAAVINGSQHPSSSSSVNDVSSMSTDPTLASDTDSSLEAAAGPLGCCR

covalent modification site on JNK2 [2]: exclusive modification on JNK2 Cys116
Structure (SMILES): CN(C)C/C=C/C(=O)Nc1ccc(C(=O)N2CC[C@H](Nc3nccc(-c4c(-c5ccccc5)nn5ccccc45)n3)C2)cc1 [YL2056, (S,E)-4-(Dimethylamino)-N-[4-(3-{[4-(2-phenylpyrazolo[1,5-a]pyridin-3-yl)pyrimidin-2-yl]amino}pyrrolidine-1-carbonyl)phenyl]but-2-enamide]
vacuole formation ([1]; MDA-MB-231, phenotype of PIKFYVE inhibition): induced | PIKFYVE binding in NanoBRET [3]: binds to PIKFYVE more strongly than its reversible counterpart

Structure (SMILES): O=c1ncn2nc(Sc3ccc(F)cc3F)ccc2c1-c1c(Cl)cccc1Cl [VX745]
antiproliferative activity / toxicity, single agent [4]: not toxic

JNK1 engagement in NanoBRET [5]: significantly less engagement of JNK1
Structure (SMILES): C[C@H]1CN(C(=O)c2ccc(NC(=O)/C=C/CN(C)C)cc2)C[C@H]1Nc1nccc(-c2c(-c3ccccc3)nn3ccccc23)n1 [YL5084, (E)-4-(Dimethylamino)-N-[4-((3S,4S)-3-methyl-4-{[4-(2-phenylpyrazolo[1,5-a]pyridin-3-yl)pyrimidin-2-yl]amino}pyrrolidine-1-carbonyl)phenyl]but-2-enamide]
vacuole formation ([1]; up to a concentration of 4 μM): did not induce vacuole formation | induction of apoptosis [6]: induced apoptosis | antiproliferative activity, parental vs JNK2-knockout [7]: equipotent antiproliferative activity | GR50 (antiproliferative) ([4]; multiple myeloma (MM) cell lines, 72 h): 200 to 300 nM

potency JNK2 versus JNK1 in kinetic assay [10]: almost equipotent against both
Structure (SMILES): Cc1cc(NC(=O)c2cccc(NC(=O)/C=C/CN(C)C)c2)ccc1Nc1nccc(-c2cccnc2)n1 [JNK-IN-8]
antiproliferative effect in ANBL6 cells [8]: minimal effect | induction of apoptosis [6]: failed to induce apoptotic cell death to the same level | engagement of JNK1 and JNK2 in pull down [9]: engaged both JNK1 and JNK2 at the same concentration

Structure (SMILES): O[C@H]1CC[C@H](Nc2ncc3nc(Nc4c(F)cc(F)cc4F)n([C@H]4CCOC4)c3n2)CC1 [CC930]
protection from YL5084-mediated cell killing ([4]; 10 μM pretreatment, MM.1S cells): did not protect | antiproliferative activity / toxicity, single agent [4]: did not exhibit antiproliferative activity even at micromolar concentrations

Structure (SMILES): C[C@H]1CN(C(=O)c2ccc(NC(=O)CCCN(C)C)cc2)C[C@H]1Nc1nccc(-c2c(-c3ccccc3)nn3ccccc23)n1 [YL5084R, 4-(Dimethylamino)-N-[4-((3S,4S)-3-methyl-4-{[4-(2-phenylpyrazolo[1,5-a]pyridin-3-yl)pyrimidin-2-yl]amino}pyrrolidine-1-carbonyl)phenyl]butanamide]
fold weaker antiproliferative activity than YL5084 ([4]; multiple myeloma (MM) cell lines, GR50): 15 fold

Structure (SMILES): CN(C)C/C=C/C(=O)Nc1ccc(C(=O)Nc2cccc(Nc3nccc(-c4c(-c5ccccc5)nn5ccccc45)n3)c2)cc1 [THZ-3–60-1]
selectivity JNK2 versus JNK1 [11]: exhibited selectivity for JNK2 versus JNK1 | kinome-wide selectivity [12]: poor kinome-wide selectivity
